In patent publication US4009181A, “Cyclopenta[b]indole-2-carboxylic acids and derivatives thereof” (Hoffmann-La Roche Inc., priority 1974, dated 1977):

Legend:
[1] = LD50 p.o. in mice (acute toxicity); assay type: in vivo
[2] = antipyretic activity: Brewer's yeast foot injection, foot and rectal temperatures; assay type: in vivo, male rats; details: rats; 200 mg/kg.
Method: Control animals are given 1 cc/100 g. body weight of the vehicle. The test drug animals are given 200 mg/kg. of the drug in a concentration of 2 percent. Soluble and insoluble compounds are administered orally in aqueous suspended vehicle. One hour after administration of drug, these rats are injected with 0.1 ml. of a 2 percent suspension of Brewer's yeast beneath the plantar surface of the foot. Two hours after drug injections and 1 hour after the irritant, the temperatures of the inflammed foot, the normal foot and the rectum are recorded with the help of a thermocouple. Results are reported as degrees change from controls. The temperatures are averaged for the inflamed foot, the normal foot and the rectum. The averages for the treated groups are compared with the control averages and the results noted as degrees change from control.

[3] = analgesic activity: hot plate reaction time; assay type: in vivo, male mice; details: mice; dose ranging from 38 mg. to about 220 mg.
Method: The method determines the reaction time of mice dropped onto a hot plate maintained at 55±0.5° C. Six groups of male mice (5 mice/group) weighing between 20-30 grams are utilized. The initial reaction time of these mice is determined once, and the reaction time of each group is then averaged. The mice are then administered the vehicle and/or the compound to be tested by the oral, intraperitoneal or subcutaneous route. The average reaction time of each group is determined again at 30, 60 and 90 minutes after compound administration and is compared to controls. Reaction time is recorded as percent changes from control. All groups are averaged before and after treatment. A combined reaction time average (recorded as percent change of reaction time threshhold from controls) for all three periods is plotted against dose on graph paper, and a curve is drawn. The ED 50 is read from this curve.

In the case of `O=C(O)C1CCc2c([nH]c3ccc(Cl)cc23)C1` (stereo not drawn) [6-chloro-1,2,3,4-tetrahydrocarbazole-2-carboxylic acid], the LD50 [1] is reported as 1120 mg, the antipyretic activity [2] is reported as “antipyretic activity is observed” and the analgesic activity [3] is reported as “analgesic activity is observed”.
